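1) Cells in 96-well plates. 2) Compound, 48 h, 5 concentrations. 3) Linear interpolation between surrounding doses. 4) Unreached endpoint = highest concentration. At the GI50, growth is halved.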 Active and inactive are the calls of the source. No stated cut-off is given here; in the data, active = GI50 up to about 1.1 µM and inactive = higher.
Key:
Assay in all cases: inhibition of tumour cell growth, NCI panel, 48 h
[1] = system: 786-0
[2] = system: A498
[3] = system: A549
[4] = system: CAKI-1
[5] = system: CCRF-CEM
[6] = system: COLO 205
[7] = system: DMS-114
[8] = system: EKVX
[9] = system: HCT-116
[10] = system: HCT-15
[11] = system: HL-60
[12] = system: HOP-18
[13] = system: HOP-92
[14] = system: HT-29
[15] = system: IGROV-1
[16] = system: K562
[17] = system: KM-20L2
[18] = system: KM12
[19] = system: LXFL 529
[20] = system: M14
[21] = system: MOLT-4
[22] = system: Malme-3M
[23] = system: NCI-H23
[24] = system: NCI-H522
[25] = system: OVCAR-3
[26] = system: OVCAR-4
[27] = system: OVCAR-5
[28] = system: OVCAR-8
[29] = system: RPMI-8226
[30] = system: RXF 393
[31] = system: SF-268
[32] = system: SF-295
[33] = system: SF-539
[34] = system: SK-MEL-28
[35] = system: SK-MEL-2
[36] = system: SK-MEL-5
[37] = system: SK-OV-3
[38] = system: SN12C
[39] = system: SNB-19
[40] = system: SR
[41] = system: SW-620
[42] = system: TK-10
[43] = system: U-251
[44] = system: UACC-62
[45] = system: UO-31
[46] = system: ACHN
[47] = system: BT-549
[48] = system: DU-145
[49] = system: HCC 2998
[50] = system: HOP-62
[51] = system: Hs-578T
[52] = system: LOX IMVI
[53] = system: MCF7
[54] = system: MDA-MB-231
[55] = system: MDA-MB-435
[56] = system: MDA-N
[57] = system: NCI-H226
[58] = system: NCI-H460
[59] = system: NCI/ADR-RES
[60] = system: PC-3
[61] = system: SNB-75
[62] = system: T47D
[63] = system: UACC-257
[64] = system: DLD-1
[65] = system: SNB-78

Cc1c(/C=N/NS(=O)(=O)c2ccccc2)no[n+]1[O-]
GI50 [1]: > 100 µM (inactive) | GI50 [2]: > 100 µM (inactive) | GI50 [3]: > 100 µM (inactive) | GI50 [4]: > 100 µM (inactive) | GI50 [5]: > 100 µM (inactive) | GI50 [6]: > 100 µM (inactive) | GI50 [7]: > 100 µM (inactive) | GI50 [8]: > 100 µM (inactive) | GI50 [9]: > 100 µM (inactive) | GI50 [10]: > 100 µM | GI50 [11]: > 100 µM (inactive) | GI50 [12]: > 100 µM (inactive) | GI50 [13]: > 100 µM (inactive) | GI50 [14]: > 100 µM (inactive) | GI50 [15]: > 100 µM (inactive) | GI50 [16]: > 100 µM (inactive) | GI50 [17]: > 100 µM (inactive) | GI50 [18]: > 100 µM (inactive) | GI50 [19]: > 100 µM (inactive) | GI50 [20]: > 100 µM (inactive) | GI50 [21]: > 100 µM (inactive) | GI50 [22]: > 100 µM (inactive) | GI50 [23]: > 100 µM (inactive) | GI50 [24]: > 100 µM (inactive) | GI50 [25]: > 100 µM (inactive) | GI50 [26]: > 100 µM (inactive) | GI50 [27]: > 100 µM (inactive) | GI50 [28]: > 100 µM (inactive) | GI50 [29]: > 100 µM (inactive) | GI50 [30]: > 100 µM (inactive) | GI50 [31]: > 100 µM (inactive) | GI50 [32]: > 100 µM (inactive) | GI50 [33]: > 100 µM (inactive) | GI50 [34]: > 100 µM (inactive) | GI50 [35]: > 100 µM (inactive) | GI50 [36]: > 100 µM (inactive) | GI50 [37]: > 100 µM (inactive) | GI50 [38]: > 100 µM (inactive) | GI50 [39]: 37.9 µM (inactive) | GI50 [40]: > 100 µM (inactive) | GI50 [41]: > 100 µM (inactive) | GI50 [42]: > 100 µM (inactive) | GI50 [43]: > 100 µM (inactive) | GI50 [44]: > 100 µM (inactive) | GI50 [45]: 2.92 µM (inactive)

CN1CCN(C(=O)c2cn(Cc3cncn3Cc3ccc4c(c3)OCO4)cc2-c2cccc3ccccc23)CC1
GI50 [1]: 20.9 µM (inactive) | GI50 [2]: 0.883 µM (active) | GI50 [3]: 16.9 µM (inactive) | GI50 [46]: 9.98 µM (inactive) | GI50 [47]: 9.75 µM (inactive) | GI50 [4]: 20.5 µM (inactive) | GI50 [5]: 4.71 µM (inactive) | GI50 [6]: 14.7 µM (inactive) | GI50 [48]: 37.4 µM (inactive) | GI50 [8]: 15.3 µM (inactive) | GI50 [49]: 10.6 µM (inactive) | GI50 [9]: 4.89 µM (inactive) | GI50 [10]: 17 µM | GI50 [11]: 0.337 µM (active) | GI50 [50]: 26.9 µM (inactive) | GI50 [13]: 1.03 µM (active) | GI50 [14]: 3.11 µM (inactive) | GI50 [51]: 23.2 µM (inactive) | GI50 [15]: 2.85 µM (inactive) | GI50 [16]: 3.32 µM (inactive) | GI50 [18]: 0.782 µM (active) | GI50 [52]: 4.76 µM (inactive) | GI50 [20]: 0.273 µM (active) | GI50 [53]: 14.2 µM (inactive) | GI50 [54]: 9.25 µM (inactive) | GI50 [55]: 0.198 µM (active) | GI50 [56]: 0.378 µM (active) | GI50 [21]: 1.58 µM (inactive) | GI50 [22]: 3.33 µM (inactive) | GI50 [57]: 58.1 µM (inactive) | GI50 [23]: 12.2 µM (inactive) | GI50 [58]: 2.46 µM (inactive) | GI50 [24]: 5.86 µM (inactive) | GI50 [59]: 28.2 µM (inactive) | GI50 [25]: 25.5 µM (inactive) | GI50 [26]: 22.3 µM (inactive) | GI50 [27]: 24.8 µM (inactive) | GI50 [28]: 31.6 µM (inactive) | GI50 [60]: 15.6 µM (inactive) | GI50 [29]: 7.05 µM (inactive) | GI50 [30]: 30 µM (inactive) | GI50 [31]: 18.5 µM (inactive) | GI50 [32]: 6.24 µM (inactive) | GI50 [33]: 21.1 µM (inactive) | GI50 [34]: 4.83 µM (inactive) | GI50 [35]: 0.268 µM (active) | GI50 [36]: 9.04 µM (inactive) | GI50 [37]: 22.7 µM (inactive) | GI50 [38]: 17.5 µM (inactive) | GI50 [39]: 14.3 µM (inactive) | GI50 [61]: 14.7 µM (inactive) | GI50 [40]: 0.0237 µM (active) | GI50 [41]: 13.9 µM (inactive) | GI50 [62]: 15.7 µM (inactive) | GI50 [42]: 29.1 µM (inactive) | GI50 [43]: 7.73 µM (inactive) | GI50 [63]: 14 µM (inactive) | GI50 [44]: 7.96 µM (inactive) | GI50 [45]: 7.66 µM (inactive)

CNCCNc1ccc2c3c(nn2CCNCCO)-c2c(O)ccc(O)c2C(=O)c13
GI50 [1]: 0.08 µM (active) | GI50 [3]: 0.0597 µM (active) | GI50 [47]: 0.109 µM (active) | GI50 [4]: 0.101 µM (active) | GI50 [64]: 1.26 µM (inactive) | GI50 [7]: 0.0575 µM (active) | GI50 [48]: 0.0713 µM (active) | GI50 [49]: 0.2 µM (active) | GI50 [9]: 0.346 µM (active) | GI50 [10]: 1.72 µM | GI50 [12]: 0.508 µM (active) | GI50 [50]: 0.0179 µM (active) | GI50 [13]: 0.173 µM (active) | GI50 [14]: 0.378 µM (active) | GI50 [51]: 0.166 µM (active) | GI50 [15]: 0.454 µM (active) | GI50 [17]: 0.55 µM (active) | GI50 [18]: 0.211 µM (active) | GI50 [55]: 0.923 µM (active) | GI50 [56]: 0.966 µM (active) | GI50 [57]: 0.0227 µM (active) | GI50 [23]: 0.111 µM (active) | GI50 [58]: 0.0139 µM (active) | GI50 [59]: 20.8 µM (inactive) | GI50 [25]: 1.03 µM (active) | GI50 [27]: 0.468 µM (active) | GI50 [60]: 0.535 µM (active) | GI50 [31]: 0.0601 µM (active) | GI50 [32]: 0.0681 µM (active) | GI50 [38]: 0.0397 µM (active) | GI50 [65]: 0.526 µM (active) | GI50 [40]: 0.0519 µM (active) | GI50 [41]: 0.273 µM (active) | GI50 [62]: 0.635 µM (active) | GI50 [63]: 1.81 µM (inactive)

Source: ChEMBL document CHEMBL1201862, “PubChem BioAssay data set” (2004)
